Tested on: L-929 mouse fibroblast cells
Type: cell-based
Settings: 10 ppm
Protocol: Comparative studies are conducted to evaluate the cytotoxicity of individual aqueous lens disinfecting and preservative solutions containing PHMB, benzalkonium chloride and chlorhexidine. The studies utilize the Agar Overlay Assay Technique published in the Journal of Pharmaceutical Sciences, Vol. 54 (1965) pp 1545-1547 by W. L. Guess et al. The technique utilized is similar to the Zone of Inhibition Method of Otten et al (Example VII), however, when the lenses are removed from the preservative solutions they are only rinsed with isotonic saline solution to remove residual preservative. The lenses are then placed on L-929 mouse fibroblast cells to ascertain the presence of any cytotoxic response or cell inflammation which is noted by a lysing of the cells.

SMILES: [H]/N=C(\N/C(=N/[H])NCCCCCCNC(=N)NC(=N)Nc1ccc(Cl)cc1)Nc1ccc(Cl)cc1 [Chlorhexidine, chlorhexidine gluconate]
- Percent Cells Lysed: 0/0
- Width of Decolorized Zone: 0/0

From patent EP0180309B2, “Improved disinfecting and preserving solutions for contact lenses and methods of use” (priority 1984, dated 1986)
